# Values quoted from earlier work, collected in publication PMC10017685 (Nature Communications, 2023).
# Tested on: human erythrocytes
# Set-up: method as in DBAASP
# Details: cited from earlier work
row,Sequence,Class (dedicated toxicity dataset used for toxicity classifier evaluation)
1,KIAGKIAKIAGKIAKIAGKIA [DBAASP_691],0
2,GILSKLLKKLKKIIAK [DBAASP_8909],0
3,RRWRIVVIRVRR [DBAASP_1204],0

# Same assay, conditions: toxicity class label 1 or 0, meaning of the labels not given; DBAASP HC50 data, human erythrocytes; ref DBAASP; cited from earlier work
row,Sequence,Class (dedicated toxicity dataset used for toxicity classifier evaluation)
1,FLRFAGSVIHGAGHLVHHIGVAL [DBAASP_11350],0
2,FLPGILKVAANVVPGVICAITKKC [DBAASP_16462],0
3,FLSLIPHIVSGVAALANHL [DBAASP_12391],0
4,GFKDLLKGAKKALVKTVLF [DBAASP_4907],0
5,SFLTTVKKLVTNLAAL [DBAASP_13626],0
6,FLPKILKVAAK [DBAASP_16465],0
7,FLPILAGLAAKLVPKVFCSITKKC [DBAASP_4220],1
8,FLPLIASLAANFVPKIFCKITKKC [DBAASP_3563],0
9,RWGKWFKKATHVGKHVGKAALTAYL [DBAASP_997],0
10,KIALKALKALKALGKALKAL [DBAASP_11232],1
11,GLKALKKVFKGIHKAIKLINNHVQ [DBAASP_6929],0
12,GILSSLWKKPKKIIAK [DBAASP_8919],0
13,RAGLQFPVGRVHRLLRK [DBAASP_7651],0
14,GLLRASSKWGRKYYVDLAGCAKA [DBAASP_12529],0
15,FLPFLKSILGKIL [DBAASP_13349],0
16,FLSAITSILGKFF [DBAASP_13350],0

row,Sequence,Class (dedicated toxicity dataset used for toxicity classifier evaluation)
1,GLLGKLLKIAAKVGKKLL [DBAASP_4927],1
2,GLFDKWAWWRWRR [DBAASP_10050],0
3,FLPAVLKVAAHILPTAICAISRRC [DBAASP_5694],0
4,ILGKLLSTAAKLLSKL [DBAASP_4366],1
5,FLSTLLNVASNVVPTLICKITKKC [DBAASP_1890],1
6,KIAKVALKALKIAKVALKAL [DBAASP_9753],0
7,IAKIAGKIAKIAGKIA [DBAASP_14991],0
8,FFHHIFRGIVHVGKKIHRLVKG [DBAASP_9984],0
9,GLLKVIKVLL [DBAASP_3150],1
10,WRRRYRRWRRRRRWRRRPRR [DBAASP_10396],0
11,KKLFKKILKYLA [DBAASP_13463],1
12,ITKQITKQLNRQTKIQSK [DBAASP_13427],0
13,IKKIVSKIKKLL [DBAASP_7244],0
14,FLKWALKVAAK [DBAASP_16466],0
15,GLFDIWKWWRWRR [DBAASP_10052],0
16,GIGKHVGKALKGLKGLLKGLGES [DBAASP_3359],0
